Results on eleven compounds are retold here after patent publication US20200291018A1, “TAM KINASE INHIBITORS” (SYROS PHARMACEUTICALS, INC., priority 2017, published 2020).

Common to all, as to format: biochemical
One experiment deals with T1, AXL (Homo sapiens, UniProt P30530).
T1 sequence (P30530 26-894): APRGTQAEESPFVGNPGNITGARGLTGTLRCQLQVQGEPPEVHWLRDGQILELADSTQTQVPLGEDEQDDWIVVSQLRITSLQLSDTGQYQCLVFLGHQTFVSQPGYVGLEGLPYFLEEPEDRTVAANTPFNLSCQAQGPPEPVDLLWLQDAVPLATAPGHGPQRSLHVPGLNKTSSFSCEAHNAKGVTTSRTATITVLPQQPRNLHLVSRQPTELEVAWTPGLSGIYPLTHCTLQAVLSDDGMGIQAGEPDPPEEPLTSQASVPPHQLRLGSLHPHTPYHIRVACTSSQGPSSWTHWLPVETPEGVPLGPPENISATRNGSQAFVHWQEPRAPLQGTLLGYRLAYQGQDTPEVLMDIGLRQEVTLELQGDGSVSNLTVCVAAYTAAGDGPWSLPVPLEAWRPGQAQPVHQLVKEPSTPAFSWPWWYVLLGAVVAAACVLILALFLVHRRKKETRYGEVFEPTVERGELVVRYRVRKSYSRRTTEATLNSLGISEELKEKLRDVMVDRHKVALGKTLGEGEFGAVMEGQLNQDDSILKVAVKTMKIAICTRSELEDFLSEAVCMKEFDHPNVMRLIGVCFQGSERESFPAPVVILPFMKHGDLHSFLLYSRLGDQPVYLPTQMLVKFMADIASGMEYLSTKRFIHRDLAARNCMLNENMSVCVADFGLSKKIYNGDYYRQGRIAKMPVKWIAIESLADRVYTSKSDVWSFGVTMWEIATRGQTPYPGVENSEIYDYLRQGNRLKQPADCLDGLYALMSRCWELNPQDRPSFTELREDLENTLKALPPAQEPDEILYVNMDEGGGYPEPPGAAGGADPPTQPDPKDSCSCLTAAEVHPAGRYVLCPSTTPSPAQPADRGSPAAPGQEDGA
As to the kind of experiment: TR-FRET kinase activity assay, AXL. The conditions noted are these: ATP at Km, 60 minutes. The procedure:
(§1) IC50 values for compound inhibition of AXL, FLT3, MERTK and TYRO3 activity were determined using a TR-FRET activity assay. A peptide substrate with a fluorescent label is phosphorylated on a tyrosine by each enzyme, where the now phosphorylated product is bound by a Europium-labeled antibody specific to that phosphorylation site. The proximity between the antibody and the substrate gives a signal known as TR-FRET. As the enzyme is inhibited by compound, less phosphorylated peptide product is made, causing a decrease in overall signal.
(§2) Activity assays were performed in a 384-well, small volume, black microplates in an active enzyme volume of 10 uL and final developed volume of 20 uL. Final assay conditions are 50 mM HEPES pH 7.5, 10 mM MgCl2, 1 mM EGTA, 0.01% Brij 35 and 1 mM DTT, all at RT. Enzyme, substrate-labeled peptide and compound are mixed, and then the reaction is initiated with the addition of ATP at Km concentration for each enzyme. The reaction is allowed to run 60 minutes and then quenched with a 12.5 mM EDTA (ethylenediamine tetraacetic acid) solution. The plate is then developed with the addition of Europium-labeled antibody for a final volume of 20 uL and is then incubated for 30 minutes in darkness. Plates are read in a PHERASTAR® plate reader. Data are analyzed in GraphPad PRISM.
On the technique in general: TR-FRET usually uses a lanthanide donor and a delayed reading to cut background.

The target in a further experiment is T2, MERTK (Homo sapiens, UniProt Q12866).
T2 sequence (Q12866 21-999): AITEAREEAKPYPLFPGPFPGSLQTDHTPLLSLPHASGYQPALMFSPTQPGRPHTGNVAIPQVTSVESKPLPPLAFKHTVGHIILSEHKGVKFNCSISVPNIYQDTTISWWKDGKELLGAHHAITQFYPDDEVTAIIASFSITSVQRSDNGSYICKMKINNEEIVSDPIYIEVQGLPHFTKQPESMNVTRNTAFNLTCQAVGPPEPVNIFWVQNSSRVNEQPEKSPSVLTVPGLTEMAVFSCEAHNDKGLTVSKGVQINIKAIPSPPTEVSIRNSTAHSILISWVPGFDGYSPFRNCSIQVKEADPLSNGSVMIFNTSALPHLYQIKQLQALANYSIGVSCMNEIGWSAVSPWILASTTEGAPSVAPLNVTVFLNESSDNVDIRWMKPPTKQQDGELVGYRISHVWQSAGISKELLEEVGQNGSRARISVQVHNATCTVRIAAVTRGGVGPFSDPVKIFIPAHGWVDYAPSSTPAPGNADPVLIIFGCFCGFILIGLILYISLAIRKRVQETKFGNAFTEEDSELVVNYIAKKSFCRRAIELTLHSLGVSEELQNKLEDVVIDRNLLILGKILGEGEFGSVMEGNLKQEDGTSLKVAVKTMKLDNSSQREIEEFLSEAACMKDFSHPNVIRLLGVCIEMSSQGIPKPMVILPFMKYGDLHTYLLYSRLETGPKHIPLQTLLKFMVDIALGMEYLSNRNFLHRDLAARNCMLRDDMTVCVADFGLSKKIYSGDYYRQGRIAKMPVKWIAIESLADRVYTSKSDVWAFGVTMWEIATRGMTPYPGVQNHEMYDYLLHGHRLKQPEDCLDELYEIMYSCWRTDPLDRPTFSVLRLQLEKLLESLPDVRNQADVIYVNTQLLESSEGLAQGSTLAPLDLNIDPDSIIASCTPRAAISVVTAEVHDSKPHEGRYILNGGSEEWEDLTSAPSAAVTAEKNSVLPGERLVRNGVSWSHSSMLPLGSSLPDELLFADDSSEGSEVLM
Kind of experiment: TR-FRET kinase activity assay, MERTK. Particulars: for IC50: TR-FRET activity assay, ATP at Km, 60 minutes, read-out: Mer IC50; for Mer/Flt3 ratio (FLT3 IC50/Mer IC50): ratio calculated as FLT3 IC50/Mer IC50. The procedure:
as §1, §2

The target of another experiment is T3, FLT3 (Homo sapiens, UniProt P36888).
T3 sequence (P36888 27-993): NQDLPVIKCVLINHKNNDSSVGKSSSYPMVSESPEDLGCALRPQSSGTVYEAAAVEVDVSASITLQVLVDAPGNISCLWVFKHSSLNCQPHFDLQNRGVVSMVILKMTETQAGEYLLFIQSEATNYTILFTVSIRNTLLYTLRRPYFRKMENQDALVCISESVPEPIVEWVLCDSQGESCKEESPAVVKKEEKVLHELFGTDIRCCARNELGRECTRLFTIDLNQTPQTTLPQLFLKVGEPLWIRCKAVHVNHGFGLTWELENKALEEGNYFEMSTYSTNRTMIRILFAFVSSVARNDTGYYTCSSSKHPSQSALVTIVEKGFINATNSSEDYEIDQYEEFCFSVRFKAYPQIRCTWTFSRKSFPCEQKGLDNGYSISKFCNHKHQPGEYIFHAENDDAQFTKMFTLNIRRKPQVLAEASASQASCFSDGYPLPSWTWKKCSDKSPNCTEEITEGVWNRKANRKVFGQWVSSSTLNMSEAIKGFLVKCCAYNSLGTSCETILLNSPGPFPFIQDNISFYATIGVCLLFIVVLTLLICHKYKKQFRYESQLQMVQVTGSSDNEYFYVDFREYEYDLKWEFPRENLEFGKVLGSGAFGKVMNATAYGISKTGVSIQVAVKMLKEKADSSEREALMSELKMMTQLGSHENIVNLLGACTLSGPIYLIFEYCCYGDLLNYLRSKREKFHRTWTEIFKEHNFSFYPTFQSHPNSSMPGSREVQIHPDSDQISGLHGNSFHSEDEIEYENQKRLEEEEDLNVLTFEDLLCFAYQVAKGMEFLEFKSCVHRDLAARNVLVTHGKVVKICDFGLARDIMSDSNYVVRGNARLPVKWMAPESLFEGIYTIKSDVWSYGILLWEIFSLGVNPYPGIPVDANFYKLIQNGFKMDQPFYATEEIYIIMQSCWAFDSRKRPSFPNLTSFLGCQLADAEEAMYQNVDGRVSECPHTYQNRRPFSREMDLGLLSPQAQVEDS
As to the kind of experiment: TR-FRET kinase activity assay, FLT3. The conditions noted are these: ATP at Km, 60 minutes. The procedure:
as §1, §2

Structures are written as SMILES.

As a reminder, the IC50 is the concentration that gives 50% inhibition.

`CCCCNc1ncc2c(=O)n(Cc3ccc(F)cc3)cc([C@H]3CC[C@H](O)CC3)c2n1` [Compound 105]: the figures for the IC50 against AXL, at MERTK and at FLT3 were 100 to 1000 nM, at most 100 nM and 100 to 1000 nM, respectively. The “Mer/Flt3 ratio (FLT3 IC50/Mer IC50)” value at MERTK was “+ (a ratio of >2.0 and <10)”.

In the case of `CCCCNc1ncc2c(=O)n(C3CCOCC3)cc([C@H]3CC[C@H](O)CC3)c2n1` [Compound 106, 2-(butylamino)-8-(4-hydroxycyclohexyl)-6-tetrahydropyran-4-yl-pyrido[4,3-d]pyrimidin-5-one], the values for the IC50 against AXL, on MERTK and at FLT3 were 100 to 1000 nM, at most 100 nM and 100 to 1000 nM, respectively. Further, the “Mer/Flt3 ratio (FLT3 IC50/Mer IC50)” value on MERTK was “+ (a ratio of >2.0 and <10)”.

`COCC(COC)Nc1ncc2c(=O)n(C3CCNCC3)cc([C@H]3CC[C@H](O)CC3)c2n1` [Compound 110]: the IC50 on AXL, on MERTK and against FLT3 was 1000 to 10000 nM each time. Further, the “Mer/Flt3 ratio (FLT3 IC50/Mer IC50)” value at MERTK is “NS (a ratio of ≤2.0)”.

As to `COCC(C)Nc1ncc2c(=O)n(C3CCNCC3)cc(C3CCC(O)CC3)c2n1` (centres unmarked) [Compound 111, 8-((1r,4r)-4-hydroxycyclohexyl)-2-((1-methoxypropan-2-yl)amino)-6-(piperidin-4-yl)pyrido[4,3-d]pyrimidin-5(6H)-one], the IC50 on AXL is 100 to 1000 nM; at MERTK it was at most 100 nM; against FLT3 it was 1000 to 10000 nM. At MERTK, the “Mer/Flt3 ratio (FLT3 IC50/Mer IC50)” value was “+++ (a ratio of >100)”.

Take `CCCCC[C@H](C)Nc1ncc2c(OC3CCOCC3)ncc([C@H]3CC[C@H](O)CC3)c2n1` [Compound 113]: the IC50 against AXL was 100 to 1000 nM; at MERTK, at most 100 nM; at FLT3, 1000 to 10000 nM. The “Mer/Flt3 ratio (FLT3 IC50/Mer IC50)” value at MERTK is “+++ (a ratio of >100)”.

Regarding `CCCCNc1ncc2c(NC3CCN(C)CC3)ncc([C@H]3CC[C@H](O)CC3)c2n1` [Compound 114], the IC50 is 100 to 1000 nM at AXL, at most 100 nM on MERTK and at most 100 nM at FLT3. Also, the “Mer/Flt3 ratio (FLT3 IC50/Mer IC50)” value at MERTK is “+++ (a ratio of >100)”.

Regarding `CCCCNc1ncc2c(Oc3ccc(F)cc3)ncc([C@H]3CC[C@H](O)CC3)c2n1` [Compound 115], the figures for the IC50 on AXL, on MERTK and at FLT3 were 1000 to 10000 nM, at most 100 nM and at most 100 nM, respectively. Also, the “Mer/Flt3 ratio (FLT3 IC50/Mer IC50)” value on MERTK is “+ (a ratio of >2.0 and <10)”.

Take `COCC(C)Nc1ncc2c(=O)n(C3CCN(C)CC3)cc([C@H]3CC[C@H](O)CC3)c2n1` (some centres unmarked) [Compound 118]: the IC50 fell in the range of 100 to 1000 nM at AXL, 100 to 1000 nM at MERTK and 1000 to 10000 nM on FLT3. Further, the “Mer/Flt3 ratio (FLT3 IC50/Mer IC50)” value on MERTK was “++ (a ratio of between 10 and 100)”.

With `CCCCC[C@H](C)Nc1ncc2c(OC3CCNCC3)ncc([C@H]3CC[C@H](O)CC3)c2n1` [Compound 121], the IC50 is 100 to 1000 nM on AXL, at most 100 nM on MERTK and 1000 to 10000 nM against FLT3. In addition, the “Mer/Flt3 ratio (FLT3 IC50/Mer IC50)” value on MERTK was “+++ (a ratio of >100)”.

With `CCCCNc1ncc2c(N(C)C)ncc([C@H]3CC[C@H](O)CC3)c2n1` [Compound 123], the figures for the IC50 at AXL, at MERTK and at FLT3 were 100 to 1000 nM, 1000 to 10000 nM and at most 100 nM, respectively. Further, the “Mer/Flt3 ratio (FLT3 IC50/Mer IC50)” value on MERTK is “NS (a ratio of ≤2.0)”.

For `CC[C@H](C)Nc1ncc2c(OCC34CCC(N)(CC3)CC4)ncc([C@H]3CC[C@H](O)CC3)c2n1` [Compound 252], the IC50 was 100 to 1000 nM on AXL, at most 100 nM at MERTK and 1000 to 10000 nM against FLT3. At MERTK, the “Mer/Flt3 ratio (FLT3 IC50/Mer IC50)” value is “++ (a ratio of between 10 and 100)”.
